Experiments:
[1] = test system: anti-EST antibody; experiment: SPR imaging of anti-EST antibody binding to the immobilized small molecular array; details: Example 1: photoimmobilized at 365 nm, 4 J/cm^2; 50 μg/mL antibody
[2] = test system: anti-DIG antibody; experiment: SPR imaging of anti-DIG antibody binding to the immobilized small molecular array; details: 4 J/cm^2; for binding of anti-DIG antibody to immobilized substance (FIG. 15): Comparative Example 2: irradiated at 245 nm, 50 μg/mL antibody run for 5 minutes; for binding of anti-DIG antibody to immobilized substance (FIG. 12): Example 1: photoimmobilized at 365 nm, 50 μg/mL antibody

Row | Compound | binding of anti-EST antibody to immobilized substance (FIG. 13) [1] | binding of anti-DIG antibody to immobilized substance (FIG. 15) [2] | binding of anti-DIG antibody to immobilized substance (FIG. 12) [2]
1 | CC(=O)[C@H]1CC[C@H]2[C@@H]3CCC4=CC(=O)CC[C@]4(C)[C@H]3CC[C@]12C [PGS, Progesterone] | No binding | – | –
2 | C[C@]12CCC(=O)C=C1CC[C@@H]1[C@@H]2[C@@H](O)C[C@@]2(C)[C@H]1CC[C@]2(O)C(=O)CO [HCN, Hydrocortisone] | No binding | – | –
3 | C[C@H]1O[C@@H](O[C@H]2[C@@H](O)C[C@H](O[C@H]3[C@@H](O)C[C@H](O[C@H]4CC[C@@]5(C)[C@H](CC[C@@H]6[C@@H]5CC[C@]5(C)[C@@H](C7=CC(=O)OC7)CC[C@]65O)C4)O[C@@H]3C)O[C@@H]2C)C[C@H](O)[C@@H]1O [DTN, digitoxin] | – | observed | obvious
4 | C[C@H]1O[C@@H](O[C@H]2[C@@H](O)C[C@H](O[C@H]3[C@@H](O)C[C@H](O[C@H]4CC[C@@]5(C)[C@H](CC[C@@H]6[C@@H]5C[C@@H](O)[C@]5(C)[C@@H](C7=CC(=O)OC7)CC[C@]65O)C4)O[C@@H]3C)O[C@@H]2C)C[C@H](O)[C@@H]1O [DIG, digoxin] | – | observed | obvious
5 | C[C@]12CC[C@@H]3c4ccc(O)cc4CC[C@H]3[C@@H]1CC[C@@H]2O [EST, β-Estradiol] | bound to only the spots of EST | – | –

From patent US20080124809A1, “Method of Interaction Observation” (RIKEN, priority 2004, published 2008)
